Assay results: article PMC5218480 (PLoS ONE, 2017)

Test system: MV-4-11 cells
Assay: Gene expression microarray analysis (Affymetrix PrimeView) and GSEA
Format: cell-based, human
Parameters: RFU PODN (11730768_x_at) / Fold change /veh PODN (11730768_x_at) / RFU LINC00158 (11744669_a_at) / Fold change /veh LINC00158 (11744669_a_at) / RFU DUSP10 (11751237_a_at) / Fold change /veh DUSP10 (11751237_a_at) / RFU ID3 (11757404_x_at) / Fold change /veh ID3 (11757404_x_at) / RFU PLEKHG5 (11737974_s_at) / Fold change /veh PLEKHG5 (11737974_s_at) / RFU LRRC4B (11730491_at) / Fold change /veh LRRC4B (11730491_at) / RFU GIMAP4 (11747438_a_at) / Fold change /veh GIMAP4 (11747438_a_at) / RFU KRT8 (11758183_x_at) / Fold change /veh KRT8 (11758183_x_at) / RFU CNN1 (11734310_a_at) / Fold change /veh CNN1 (11734310_a_at) / RFU VPS37D (11726825_at) / Fold change /veh VPS37D (11726825_at) / RFU C10orf10 (11716522_x_at) / Fold change /veh C10orf10 (11716522_x_at) / RFU KIR2DL2 /// KIR2DL4 /// KIR2DL5A /// KIR2DL5B /// KIR2DS1 /// KIR2DS2 /// KIR2DS3 /// KIR2DS4 /// KIR3DL3 /// KIR3DL3 /// KIR3DS1 (11738374_at) / Fold change /veh KIR2DL2 /// KIR2DL4 /// KIR2DL5A /// KIR2DL5B /// KIR2DS1 /// KIR2DS2 /// KIR2DS3 /// KIR2DS4 /// KIR3DL3 /// KIR3DL3 /// KIR3DS1 (11738374_at) / RFU C1QL1 (11718748_at) / Fold change /veh C1QL1 (11718748_at) / RFU TMPRSS4 (11747572_a_at) / Fold change /veh TMPRSS4 (11747572_a_at) / RFU HAMP (11756126_x_at) / Fold change /veh HAMP (11756126_x_at) / RFU RNFT2 (11725882_a_at) / Fold change /veh RNFT2 (11725882_a_at) / RFU NR4A2 (11747474_a_at) / Fold change /veh NR4A2 (11747474_a_at) / RFU ABCC12 (11746883_a_at) / Fold change /veh ABCC12 (11746883_a_at) / RFU TMEM136 (11760407_x_at) / Fold change /veh TMEM136 (11760407_x_at) / RFU CLDN22 /// WWC2 (11732394_at) / Fold change /veh CLDN22 /// WWC2 (11732394_at) / RFU HLA-DPB1 (11760878_x_at) / Fold change /veh HLA-DPB1 (11760878_x_at) / RFU SPINT1 (11716480_a_at) / Fold change /veh SPINT1 (11716480_a_at) / RFU GAP43 (11754022_s_at) / Fold change /veh GAP43 (11754022_s_at) / RFU A4GNT (11735810_at) / Fold change /veh A4GNT (11735810_at) / RFU PRB3 (11715151_x_at) / Fold change /veh PRB3 (11715151_x_at) / RFU TUBB4B (11761932_at) / Fold change /veh TUBB4B (11761932_at) / RFU CAPN14 (11732068_a_at) / Fold change /veh CAPN14 (11732068_a_at) / RFU TMCC2 (11721928_a_at) / Fold change /veh TMCC2 (11721928_a_at) / RFU IRGQ (11745062_a_at) / Fold change /veh IRGQ (11745062_a_at) / RFU FAM174B (11720279_a_at) / Fold change /veh FAM174B (11720279_a_at) / RFU TMPRSS4 (11748680_a_at) / Fold change /veh TMPRSS4 (11748680_a_at) / RFU FAM212B (11763350_a_at) / Fold change /veh FAM212B (11763350_a_at) / RFU PLEKHG5 (11743358_a_at) / Fold change /veh PLEKHG5 (11743358_a_at) / RFU ZSCAN30 (11745921_a_at) / Fold change /veh ZSCAN30 (11745921_a_at) / RFU CMKLR1 (11741424_a_at) / Fold change /veh CMKLR1 (11741424_a_at) / RFU LOC101060620 /// MAPK8IP1 (11723275_at) / Fold change /veh LOC101060620 /// MAPK8IP1 (11723275_at) / RFU SPTSSB (11747773_x_at) / Fold change /veh SPTSSB (11747773_x_at) / RFU PRSS12 (11739890_at) / Fold change /veh PRSS12 (11739890_at) / RFU BIN1 (11741810_x_at) / Fold change /veh BIN1 (11741810_x_at) / RFU WNT11 (11732464_a_at) / Fold change /veh WNT11 (11732464_a_at) / RFU C10orf10 (11716521_a_at) / Fold change /veh C10orf10 (11716521_a_at) / RFU C5orf56 (11738089_at) / Fold change /veh C5orf56 (11738089_at) / RFU CYB561 (11721691_x_at) / Fold change /veh CYB561 (11721691_x_at) / RFU ANKRD19P (11752326_a_at) / Fold change /veh ANKRD19P (11752326_a_at) / RFU OR2T12 /// OR2T33 /// OR2T8 (11738714_s_at) / Fold change /veh OR2T12 /// OR2T33 /// OR2T8 (11738714_s_at) / RFU VCAN (11748164_a_at) / Fold change /veh VCAN (11748164_a_at) / RFU JSRP1 (11732532_at) / Fold change /veh JSRP1 (11732532_at) / RFU KRTAP10-11 (11738290_x_at) / Fold change /veh KRTAP10-11 (11738290_x_at) / RFU MYO3A (11730013_a_at) / Fold change /veh MYO3A (11730013_a_at) / RFU EBF3 (11725865_a_at) / Fold change /veh EBF3 (11725865_a_at) / RFU CAMK2N1 (11719241_x_at) / Fold change /veh CAMK2N1 (11719241_x_at) / RFU C5orf56 (11738088_a_at) / Fold change /veh C5orf56 (11738088_a_at) / RFU OLFML3 (11715873_a_at) / Fold change /veh OLFML3 (11715873_a_at) / RFU LOC100653217 /// NTM (11731650_a_at) / Fold change /veh LOC100653217 /// NTM (11731650_a_at) / RFU MAPK11 (11762145_a_at) / Fold change /veh MAPK11 (11762145_a_at) / RFU FIZ1 (11724087_x_at) / Fold change /veh FIZ1 (11724087_x_at) / RFU OASL (11726364_x_at) / Fold change /veh OASL (11726364_x_at) / RFU SOX15 (11748057_x_at) / Fold change /veh SOX15 (11748057_x_at) / RFU CD79A (11719716_a_at) / Fold change /veh CD79A (11719716_a_at) / RFU HIST1H1D (11736915_at) / Fold change /veh HIST1H1D (11736915_at) / RFU CASKIN2 (11723855_a_at) / Fold change /veh CASKIN2 (11723855_a_at) / RFU LOC730098 (11760151_x_at) / Fold change /veh LOC730098 (11760151_x_at) / RFU OR4N2 (11742367_at) / Fold change /veh OR4N2 (11742367_at) / RFU PRRT2 (11749266_a_at) / Fold change /veh PRRT2 (11749266_a_at) / RFU SNX32 (11753110_a_at) / Fold change /veh SNX32 (11753110_a_at) / RFU CDHR5 (11726645_a_at) / Fold change /veh CDHR5 (11726645_a_at) / RFU RCAN1 (11760418_a_at) / Fold change /veh RCAN1 (11760418_a_at) / RFU FAM167A (11723789_a_at) / Fold change /veh FAM167A (11723789_a_at) / RFU FAM26E (11764081_at) / Fold change /veh FAM26E (11764081_at) / RFU ISYNA1 (11749810_s_at) / Fold change /veh ISYNA1 (11749810_s_at) / RFU ACY1 (11761880_at) / Fold change /veh ACY1 (11761880_at) / RFU 11764098_at / Fold change /veh 11764098_at / RFU SAMD14 (11745864_x_at) / Fold change /veh SAMD14 (11745864_x_at) / RFU NPB (11741838_a_at) / Fold change /veh NPB (11741838_a_at) / RFU TMPRSS6 (11731388_a_at) / Fold change /veh TMPRSS6 (11731388_a_at) / RFU KRTAP10-2 (11738614_at) / Fold change /veh KRTAP10-2 (11738614_at) / RFU ARHGAP8 /// PRR5-ARHGAP8 (11727945_x_at) / Fold change /veh ARHGAP8 /// PRR5-ARHGAP8 (11727945_x_at) / RFU KRTAP5-7 /// NADSYN1 (11734609_at) / Fold change /veh KRTAP5-7 /// NADSYN1 (11734609_at) / RFU RASL12 (11751679_a_at) / Fold change /veh RASL12 (11751679_a_at) / RFU CDKN2B (11736163_a_at) / Fold change /veh CDKN2B (11736163_a_at) / RFU PRF1 (11729649_at) / Fold change /veh PRF1 (11729649_at) / RFU, ZNF638 /// ZNF638-IT1 / Fold change vs veh, ZNF638 /// ZNF638-IT1 / RFU, PANK3 / Fold change vs veh, PANK3 / RFU, SH3YL1 / Fold change vs veh, SH3YL1 / RFU, ZEB2 / Fold change vs veh, ZEB2 / RFU, NRIP1 / Fold change vs veh, NRIP1 / RFU, PTTG1IP / Fold change vs veh, PTTG1IP / RFU, CAPN2 / Fold change vs veh, CAPN2 / RFU, MED14 / Fold change vs veh, MED14 / RFU, SNORA58 / Fold change vs veh, SNORA58 / RFU, C1orf63 / Fold change vs veh, C1orf63 / RFU, LRRFIP1 / Fold change vs veh, LRRFIP1 / RFU, NDUFAF7 / Fold change vs veh, NDUFAF7 / RFU, SLC12A2 / Fold change vs veh, SLC12A2 / RFU, IBTK / Fold change vs veh, IBTK / RFU, ESF1 / Fold change vs veh, ESF1 / Fold change vs veh, TMEM50B / RFU, TAOK1 / Fold change vs veh, TAOK1 / RFU, ACBD3 / Fold change vs veh, ACBD3 / RFU, TMA16 / Fold change vs veh, TMA16 / RFU, RWDD3 / Fold change vs veh, RWDD3 / RFU, BCAT1 / Fold change vs veh, BCAT1 / RFU, EDEM3 / Fold change vs veh, EDEM3 / RFU, TMEM33 / Fold change vs veh, TMEM33 / RFU, WDR75 / Fold change vs veh, WDR75 / RFU, AHCTF1 / Fold change vs veh, AHCTF1 / RFU, TFRC / Fold change vs veh, TFRC / RFU, ZDHHC17 / Fold change vs veh, ZDHHC17 / RFU, NOM1 / Fold change vs veh, NOM1 / RFU, ARL8B / Fold change vs veh, ARL8B / RFU, ZBTB11 / Fold change vs veh, ZBTB11 / RFU, TAMM41 / Fold change vs veh, TAMM41 / RFU, KIAA1704 /// LOC100996395 / Fold change vs veh, KIAA1704 /// LOC100996395 / RFU, ING1 / Fold change vs veh, ING1 / RFU, TRMT61B / Fold change vs veh, TRMT61B / RFU, FUBP3 / Fold change vs veh, FUBP3 / RFU, TP53 / Fold change vs veh, TP53 / RFU, TNKS2 / Fold change vs veh, TNKS2 / RFU, ZFP14 / Fold change vs veh, ZFP14 / RFU, ACTR2 / Fold change vs veh, ACTR2 / RFU, PPP3R1 / Fold change vs veh, PPP3R1 / RFU, PIK3R1 / Fold change vs veh, PIK3R1 / RFU, HNRNPA1 / Fold change vs veh, HNRNPA1 / RFU, RNF170 / Fold change vs veh, RNF170 / RFU, ZNF28 / Fold change vs veh, ZNF28 / RFU, RNGTT / Fold change vs veh, RNGTT / RFU, OGT / Fold change vs veh, OGT / RFU, BRD1 / Fold change vs veh, BRD1 / RFU, MARS / Fold change vs veh, MARS / RFU, ZNF655 / Fold change vs veh, ZNF655 / RFU, FAHD1 / Fold change vs veh, FAHD1 / RFU, BDP1 / Fold change vs veh, BDP1 / RFU, LRRCC1 / Fold change vs veh, LRRCC1 / RFU, ARID1A / Fold change vs veh, ARID1A / RFU, ZNF146 / Fold change vs veh, ZNF146 / RFU, ZNF330 / Fold change vs veh, ZNF330 / RFU, GPN3 / Fold change vs veh, GPN3 / RFU, C9orf123 / Fold change vs veh, C9orf123 / RFU, N4BP2L2 / Fold change vs veh, N4BP2L2 / RFU, ARFIP1 / Fold change vs veh, ARFIP1 / RFU, FAM179B / Fold change vs veh, FAM179B / RFU, BCL10 / Fold change vs veh, BCL10 / RFU, UHRF1BP1L / Fold change vs veh, UHRF1BP1L / RFU, BET1 / Fold change vs veh, BET1 / RFU, CNOT2 / Fold change vs veh, CNOT2 / RFU, ZNF268 / Fold change vs veh, ZNF268 / Fold change vs veh, ZNF507 / RFU, DGCR2 / Fold change vs veh, DGCR2 / RFU, WDSUB1 / Fold change vs veh, WDSUB1 / Fold change vs veh, HSP90B1 /// MIR3652 / RFU, ADSS / Fold change vs veh, ADSS / RFU, GK / Fold change vs veh, GK / RFU, ZNF148 / Fold change vs veh, ZNF148 / RFU, TAF9 / Fold change vs veh, TAF9 / RFU, SLC1A5 / Fold change vs veh, SLC1A5 / RFU, SLMO2 / Fold change vs veh, SLMO2 / RFU, ABCC4 / Fold change vs veh, ABCC4 / RFU, LOC101060439 /// RAP1B / Fold change vs veh, LOC101060439 /// RAP1B / RFU, RFX7 / Fold change vs veh, RFX7 / RFU, GTPBP10 / Fold change vs veh, GTPBP10 / RFU, CNEP1R1 / Fold change vs veh, CNEP1R1 / RFU, BIVM-ERCC5 /// ERCC5 / Fold change vs veh, BIVM-ERCC5 /// ERCC5 / RFU, ILF3 / Fold change vs veh, ILF3 / RFU 11762660_at / Fold change /veh 11762660_at / RFU VCAN (11757783_s_at) / Fold change /veh VCAN (11757783_s_at) / RFU DDX43 (11728927_at) / Fold change /veh DDX43 (11728927_at) / RFU KRT8 (11758188_x_at) / Fold change /veh KRT8 (11758188_x_at) / RFU NKD1 (11759106_at) / Fold change /veh NKD1 (11759106_at) / RFU SRD5A1 (11742802_a_at) / Fold change /veh SRD5A1 (11742802_a_at) / RFU TPSAB1 /// TPSB2 (11721975_s_at) / Fold change /veh TPSAB1 /// TPSB2 (11721975_s_at) / RFU GSTM3 (11746129_a_at) / Fold change /veh GSTM3 (11746129_a_at) / RFU IL23R (11737362_x_at) / Fold change /veh IL23R (11737362_x_at) / RFU TMEM51 (11727254_a_at) / Fold change /veh TMEM51 (11727254_a_at) / RFU PIWIL2 (11732686_x_at) / Fold change /veh PIWIL2 (11732686_x_at) / RFU ORM1 (11744905_x_at) / Fold change /veh ORM1 (11744905_x_at) / RFU CCDC152 (11743942_at) / Fold change /veh CCDC152 (11743942_at) / RFU ECM1 (11717891_a_at) / Fold change /veh ECM1 (11717891_a_at) / RFU IL23R (11748794_a_at) / Fold change /veh IL23R (11748794_a_at) / RFU TNFAIP8L3 (11732012_x_at) / Fold change /veh TNFAIP8L3 (11732012_x_at) / RFU MBOAT4 (11741988_at) / Fold change /veh MBOAT4 (11741988_at) / RFU 11764193_at / Fold change /veh 11764193_at / RFU TMEM53 (11763286_at) / Fold change /veh TMEM53 (11763286_at) / RFU MAGEB2 (11727129_at) / Fold change /veh MAGEB2 (11727129_at) / RFU TMEM200A (11744735_a_at) / Fold change /veh TMEM200A (11744735_a_at) / RFU CCDC152 (11751479_a_at) / Fold change /veh CCDC152 (11751479_a_at) / RFU FAM211A (11726209_a_at) / Fold change /veh FAM211A (11726209_a_at) / RFU RGS16 (11746705_a_at) / Fold change /veh RGS16 (11746705_a_at) / RFU VCAN (11755009_s_at) / Fold change /veh VCAN (11755009_s_at) / RFU RHOB (11743442_s_at) / Fold change /veh RHOB (11743442_s_at) / RFU RGS16 (11720943_a_at) / Fold change /veh RGS16 (11720943_a_at) / RFU RGS16 (11720944_at) / Fold change /veh RGS16 (11720944_at) / RFU, VPS4B / Fold change vs veh, VPS4B / RFU, CREB1 / Fold change vs veh, CREB1 / RFU, DNAJC13 / Fold change vs veh, DNAJC13 / RFU, GNAQ / Fold change vs veh, GNAQ / RFU, CDK5R1 / Fold change vs veh, CDK5R1 / RFU, ZRANB3 / Fold change vs veh, ZRANB3 / RFU, CUL4A / Fold change vs veh, CUL4A / RFU, CCNY / Fold change vs veh, CCNY / RFU, UFL1 / Fold change vs veh, UFL1 / RFU, COG3 / Fold change vs veh, COG3 / RFU, DIAPH2 / Fold change vs veh, DIAPH2 / RFU, SKA2 / Fold change vs veh, SKA2 / RFU, AFF3 / Fold change vs veh, AFF3 / RFU, LMF1 / Fold change vs veh, LMF1 / RFU, IPO11 / Fold change vs veh, IPO11 / RFU, DFFB / Fold change vs veh, DFFB / RFU, FOXP1 / Fold change vs veh, FOXP1 / RFU, CARD8 / Fold change vs veh, CARD8 / RFU, STRN3 / Fold change vs veh, STRN3 / RFU, ADK / Fold change vs veh, ADK / RFU, RASSF2 / Fold change vs veh, RASSF2 / RFU, WIPF1 / Fold change vs veh, WIPF1 / RFU, LARP1B / Fold change vs veh, LARP1B / RFU, RASA1 / Fold change vs veh, RASA1 / RFU, RB1 / Fold change vs veh, RB1 / RFU, PPFIA1 / Fold change vs veh, PPFIA1 / RFU, MAT2A / Fold change vs veh, MAT2A / RFU, CCT5 / Fold change vs veh, CCT5 / RFU, WDR92 / Fold change vs veh, WDR92 / RFU, CUX1 / Fold change vs veh, CUX1 / RFU, TTC7A / Fold change vs veh, TTC7A / RFU, TMEM135 / Fold change vs veh, TMEM135 / RFU, DEPTOR / Fold change vs veh, DEPTOR / RFU, CPM / Fold change vs veh, CPM / RFU, DNAJB6 / Fold change vs veh, DNAJB6 / RFU, CACNA2D3 / Fold change vs veh, CACNA2D3 / RFU, DTX4 / Fold change vs veh, DTX4 / RFU, TFCP2 / Fold change vs veh, TFCP2 / RFU, GMCL1 /// GMCL1P1 / Fold change vs veh, GMCL1 /// GMCL1P1 / RFU, AEBP2 / Fold change vs veh, AEBP2 / RFU, SNHG1 /// SNORD22 /// SNORD25 /// SNORD26 /// SNORD27 /// SNORD28 /// SNORD29 /// SNORD31 / Fold change vs veh, SNHG1 /// SNORD22 /// SNORD25 /// SNORD26 /// SNORD27 /// SNORD28 /// SNORD29 /// SNORD31 / Fold change (Aza/veh), C12orf56 (ProbeSet 11735607_a_at) / Fold change (ACY-1035/veh), C12orf56 (ProbeSet 11735607_a_at) / Fold change (Aza/veh), FGFR1OP (ProbeSet 11751329_s_at) / Fold change (ACY-1035/veh), FGFR1OP (ProbeSet 11751329_s_at) / Fold change (Aza/veh), VPS36 (ProbeSet 11739960_a_at) / Fold change (ACY-1035/veh), VPS36 (ProbeSet 11739960_a_at) / RFU SYPL1 (11715823_x_at) / Fold change /veh SYPL1 (11715823_x_at) / RFU IGFBP7 (11715501_s_at) / Fold change /veh IGFBP7 (11715501_s_at) / RFU REEP3 (11722064_at) / Fold change /veh REEP3 (11722064_at) / RFU IGLL1 (11728026_x_at) / Fold change /veh IGLL1 (11728026_x_at): dose or concentration left out as unconfirmed
Settings: MV-4-11 cells, 48 hours

Nc1ncn([C@@H]2O[C@H](CO)[C@@H](O)[C@H]2O)c(=O)n1 [azacitidine]
RFU RASL12 (11751679_a_at): 15.38 RFU
